Reference: PubChem BioAssay (NCI)
“And” between values parts separate entries of the source, which are not always exact repeats. Equal values may be shown once.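 All cell lines were grown in 96-well plates and treated with compound for 48 hours. Here, GI50 denotes the concentration required for 50% inhibition of growth. TGI denotes the concentration required for complete inhibition of growth.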

Tests used:
Experiment in all cases: DTP human tumour cell line panel, 48 h
HOP-62 NSCLC = tested on: HOP-62 NSCLC
U251 CNS = tested on: U251 CNS
CAKI-1 renal = tested on: CAKI-1 renal
OVCAR-8 ovarian = tested on: OVCAR-8 ovarian
SF-268 CNS = tested on: SF-268 CNS
TK-10 renal = tested on: TK-10 renal
M14 melanoma = tested on: M14 melanoma
HCT-15 colon = tested on: HCT-15 colon
EKVX NSCLC = tested on: EKVX NSCLC
OVCAR-3 ovarian = tested on: OVCAR-3 ovarian

| Compound | TGI (HOP-62 NSCLC) | TGI (U251 CNS) | TGI (CAKI-1 renal) | TGI (OVCAR-8 ovarian) | TGI (SF-268 CNS) | TGI (TK-10 renal) | TGI (M14 melanoma) | TGI (HCT-15 colon) | TGI (EKVX NSCLC) | TGI (OVCAR-3 ovarian) | GI50 (HOP-62 NSCLC) [µM] | GI50 (U251 CNS) [µM] | GI50 (CAKI-1 renal) [µM] | GI50 (OVCAR-8 ovarian) [µM] | GI50 (SF-268 CNS) [µM] | GI50 (TK-10 renal) [µM] | GI50 (M14 melanoma) [µM] | GI50 (HCT-15 colon) [µM] | GI50 (EKVX NSCLC) [µM] | GI50 (OVCAR-3 ovarian) [µM] |
| --- | --- | --- | --- | --- | --- | --- | --- | --- | --- | --- | --- | --- | --- | --- | --- | --- | --- | --- | --- | --- |
| COc1cccc(Nc2nc(NS(=O)(=O)c3cc(C)c(Cl)cc3S)n[nH]2)c1 | > 100 µM | > 100 µM | > 100 µM | > 100 µM | > 100 µM | > 100 µM | > 100 µM | > 100 µM | > 100 µM | > 100 µM | – | – | – | – | – | – | – | – | – | – |
| CCCCCC(/C=C/[C@@H]1[C@@H](C(O)CCCCCC(=O)OC)C(=O)C[C@H]1O[Si](C)(C)C(C)(C)C)OCOCCOC (stereo not given in full) | 31.6 µM | 27.4 µM | 32.2 µM | 42.8 µM | 28.4 µM | 31.3 µM | 37.1 µM | 27.5 µM | 37.6 µM | 28.1 µM | – | – | – | – | – | – | – | – | – | – |
| Cn1c(=O)n2n(c1=O)C(S(=O)c1ccccc1)C2 (stereo not given) | > 100 µM | > 100 µM | > 100 µM | > 100 µM | > 100 µM | > 100 µM | > 100 µM | > 100 µM | > 100 µM | > 100 µM | – | – | – | – | – | – | – | – | – | – |
| CCCCOCCOCCOC1=C(Cl)C(=O)c2c(O)ccc(O)c2C1=O | 2.53 µM | 6.72 µM | 0.388 µM | 7.43 µM | 2.11 µM | 2.63 µM | 0.317 µM | 1.11 µM | 6.96 µM | 2.08 µM | – | – | – | – | – | – | – | – | – | – |
| O/N=C1\CSc2ccccc2C1 | > 100 µM | > 100 µM | > 100 µM | > 100 µM | > 100 µM | > 100 µM | > 100 µM | > 100 µM | 94.5 µM | > 100 µM | – | – | – | – | – | – | – | – | – | – |
| COc1cccc(/C=C2/S/C(=N/Nc3nc(C)c(C(C)=O)s3)NC2=O)c1O | > 100 µM | 44 µM | > 100 µM | > 100 µM | > 100 µM | 94.2 µM | > 100 µM | > 100 µM | 84.4 µM | 60.3 µM | – | – | – | – | – | – | – | – | – | – |
| Cc1ccc2oc3c(ccc(=O)n3C)c(=O)c2c1 | > 100 µM | > 100 µM | > 100 µM | > 100 µM | > 100 µM | > 100 µM | > 100 µM | > 100 µM | > 100 µM | > 100 µM | – | – | – | – | – | – | – | – | – | – |
| CSC1(Cc2ccccn2)C(=O)Nc2cccc([N+](=O)[O-])c21 (stereo not given) | > 100 µM | > 100 µM | > 100 µM | > 100 µM | > 100 µM | > 100 µM | > 100 µM | > 100 µM | > 100 µM | > 100 µM | – | – | – | – | – | – | – | – | – | – |
| CCOC(=O)C(C)(Cc1ccc(O)cn1)NC(=O)c1ccccc1 (stereo not given) | > 100 µM | > 100 µM | > 100 µM | > 100 µM | > 100 µM | > 100 µM | > 100 µM | > 100 µM | > 100 µM | > 100 µM | – | – | – | – | – | – | – | – | – | – |
| CC(=O)Oc1ccc2cc(Oc3ccccc3)c(=O)oc2c1 | > 100 µM | > 100 µM | > 100 µM | > 100 µM | > 100 µM | > 100 µM | > 100 µM | > 100 µM | > 100 µM | > 100 µM | – | – | – | – | – | – | – | – | – | – |
| Cc1ccc(C=C(C(=O)O)C(=O)O)o1 | > 100 µM | > 100 µM | > 100 µM | > 100 µM | > 100 µM | > 100 µM | > 100 µM | > 100 µM | > 100 µM | > 100 µM | – | – | – | – | – | – | – | – | – | – |
| C=C(Cl)C(Cl)(CBr)CCC(Br)C(C)(C)Cl (stereo not given) | 1.84 µM and 2.01 µM and 2.76 µM | 2.08 µM and 0.925 µM and 2.71 µM | 2.36 µM and 1.99 µM and 2.1 µM | 5.15 µM and 2.59 µM and 17 µM | 3.13 µM and 1.97 µM and 9.92 µM | 3.64 µM and 3.87 µM and 7.61 µM | 42.2 µM and 33.5 µM and > 74 µM | 10.6 µM and 6.12 µM and 27.8 µM | 7.36 µM and 4.19 µM and 12.8 µM | 3.09 µM and 1.96 µM and 4.78 µM | – | – | – | – | – | – | – | – | – | – |
| O=C(O)c1ccccc1CC(Cc1ccccc1)C(=O)O (stereo not given) | > 100 µM | > 100 µM | > 100 µM | > 100 µM | > 100 µM | > 100 µM | > 100 µM | > 100 µM | > 100 µM | > 100 µM | – | – | – | – | – | – | – | – | – | – |
| CCOc1cc(/C=C/C(=O)CC(=O)/C=C/c2ccc(OC(=O)CNCCN(CC)CC)c(OCC)c2)ccc1OC(=O)CNCCN(CC)CC | 6.06 µM | 2.82 µM | 6.74 µM | 12.2 µM | 9.64 µM | 6.38 µM | 4.23 µM | 4.66 µM | 3.58 µM | 6.07 µM | 2.5 | 1.27 | 2.12 | 1.03 | 1.98 | 2.6 | 1.74 | 2.06 | 1.5 | 2.24 |
| Cc1cc(C)nc(NC(=S)Nc2ccc(Cl)cc2)c1 | > 100 µM | > 100 µM | > 100 µM | 71.5 µM | > 100 µM | > 100 µM | > 100 µM | > 100 µM | > 100 µM | > 100 µM | – | – | – | – | – | – | – | – | – | – |
| O=S(=O)(O)c1ccc2c(N=Nc3c(O)ccc4ccccc34)cccc2c1 | > 100 µM | > 100 µM | > 100 µM | > 100 µM | > 100 µM | > 100 µM | > 100 µM | > 100 µM | > 100 µM | > 100 µM | – | – | – | – | – | – | – | – | – | – |
| CC1=NNC(=O)[C@H]2[C@H]1CCC1[C@@H]2CC[C@]2(C)[C@@H](O)CC[C@@H]12 (stereo not given in full) | > 100 µM | > 100 µM | > 100 µM | > 100 µM | > 100 µM | > 100 µM | > 100 µM | > 100 µM | > 100 µM | > 100 µM | – | – | – | – | – | – | – | – | – | – |
